{
  "source": "paper PMC9797021",
  "about": "(ACS applied bio materials, 2022)",
  "key": {"[1]": {"test_system": "SARS-CoV-2 spike protein, S1 subunit", "format": "binding", "settings": "pH 7.4"}, "[2]": {"test_system": "SARS-CoV-2 RBD", "settings": "cited from earlier work"}},
  "data": [
    {"substance": "ACE2", "values": [
      {"measurement": "SPR angle shift of ACE2/spike protein binding", "setting": "[1]", "result": "0.147±0.009", "unit": "degrees"}
    ]},
    {"substance": "residues 21–43 of the human ACE2 α 1-helix", "values": [
      {"measurement": "affinity compared with full-length ACE2 binding to RBD", "setting": "[2]", "result": "comparable to that of the full-length ACE2 binding to RBD"}
    ]}
  ]
}
